Results: patent US5827837A, “Polyanion anti-inflammatory agents” (priority 1996, dated 1998)

How the values were obtained:
[1] = biological target: T1, E-selectin-lg fusion protein (Homo sapiens, UniProt P16581); assay: LS 180 colon cancer cell adhesion to immobilized E-selectin-Ig; format: cell-based
T1 construct: Each selectin-lg contains the lectin domain, epidermal growth factor domain, and one (L-selectin-lg), two (P-selectin-lg) or six (E-selectin-lg) complement regulatory repeats; made in house
Method: Cell adhesion assays on immobilized selectin-lg were performed essentially as described (Nelson, R. M., et al., J. Clin. Invest., 91:1157, 1993; Nelson, R. M., et al., Symposia on Quant. Biol., 57:271, 1992). Briefly, Nunclon Terasaki Microwell plates were coated overnight with 5 μl/well of a 5 μg/ml solution of protein A (Chemicon, Temecula, Calif.) in 50 mM carbonate buffer, pH 9.5. Protein-A-coated plates were washed with Dulbecco's phosphate buffered saline (PBS), incubated for 1 hour with L-, P-, or E-selectin-lg fusion proteins in PBS (5-20 μg/ml), washed again, and blocked with PBS containing 1% human serum albumin (HSA). […] After washing to remove unbound cells, adherent cells were fixed with glutaraldehyde (2.5% in PBS) and counted. Symbols and error bars represent mean number of adherent cells/mm^2 ±s.e.m., counted in quadruplicate wells in a single experiment representative of three. No LS 180 cell adhesion was detected on plates coated with protein A alone, or on plates coated with protein A-captured CD8-lg fusion protein.
LS 180 cells (ATCC, Rockville, Md.) were added to cell culture wells containing protein A-captured selectin-lg fusion proteins and incubated for 30 min at 4° C. to allow adhesion. The plates were washed to remove unbound cells and adherent cells were counted microscopically. […]

[2] = system: L-selectin (L-COS); assay: LS 180 cell adhesion to COS cells transfected with full length L-selectin (L-COS); format: cell-based; conditions: 0.5 mM, 2 experiments
Method: (§1) The effect of inositols on selectin-dependent cell adhesion was assessed using several in vitro assay systems. In the first, a colon cancer cell line, LS 180, was chosen because it binds to all three selecting.
(§2) COS-1 cells were transfected as described (Seed, B., et al., Proc. Natl. Acad. Sci., U.S.A., 84:3365, 1987; Aruffo, A., Current Protocols In Molecular Biology, eds. supra, 1992) with pCDM7/pCDM8 expression vectors containing the full-length E-, P- and L-selectin cDNA. Transfected COS-1 cells were seeded on gelatin coated coverslips.

[3] = system: P-selectin (P-COS); assay: LS 180 cell adhesion to COS cells transfected with full length P-selectin (P-COS); format: cell-based; conditions: 0.5 mM, 2 experiments
Method: as §1, §2

[4] = system: E-selectin (E-COS); assay: PMN adhesion to E-selectin transfected COS cells (E-COS); format: cell-based, human; conditions: 0.5 mM
Method: as §2

[5] = system: Human umbilical vein endothelial cells (HUVEC); assay: PMN adhesion to TNF-activated endothelial monolayers (HUVEC); format: cell-based; conditions: InsP6 0.5 mM
Method: Human umbilical vein endothelial cells (HUVEC, Clonetics Corp., San Diego, Calif.) were grown to confluence with 2.2 cm diameter circles made on glass slides with a grease pencil as previously described (Spertini, O., et al., J. Immunol., 147:2565, 1991), and activated for 6-8 hours at […] with 200 U/ml of human recombinant TNFα (Biogen Res. Corp., Cambridge, Mass.). Human PMN (2×10^6) were allowed to adhere to these endothelial monolayers for 30 min at 4° C. under static (stationary platform; upper panel) and non-static (rotating platform, 64 r.p.m.; lower panel) conditions. To determine adhesion blocking activity, PMN were incubated in 5% FBS in RPMI 1640 alone or containing inositol (0.5 mM), InsP6 (0.5 mM), or anti-L-selectin monoclonal antibody LAM 1.3 (10 μg/ml), for 30 min or ice prior to their addition to activated endothelial monolayers. In some experimental wells, endothelial monolayers were incubated with anti E-selectin monoclonal antibody, H18/7, for 30 min prior to addition of PMN. After washing to remove unbound PMN, cultures were fixed in PBS containing 2.5% glutaraldehyde and adherent PMN were counted microscopically. The data represent the mean ±s.e.m. of three separate experiments. Unblocked PMN adhesion to activated endothelial monolayers under static and non-static conditions ranged from 1800 to 2400 cells/mm^2. […]

[6] = system: peripheral blood PMN; assay: Number of peripheral blood PMN; conditions: in vivo
Excerpt: In the first model, mice were given intraperitoneal (i.p.) injections of 3% thioglycollate broth (FIG. 4, left panel) which results in an accumulation of PMN, the early phase of which is thought to depend in large part on L-(Lewinsohn, D. M., et al., J. Immunol., 138:4313, 1987; Watson, S. R., et al., Nature, 349:164, 1991), and P-selectin (Mulligan, M. S., et al., J. Clin. Invest., 90:1600, 1992). […] In a rat model of lung inflammation involving intratracheal instillation of endotoxin (Ulich, T. R., et al., Am. J. Pathol, 138:1485, 1991), InsP6 (i.v. injections at 2 and 4 hours, 40 μmol/kg total) reduced the number of PMN recovered in broncho-alveolar lavage fluid at 6 hours (59±8% inhibition, 2 experiments). The number of peripheral blood PMN was not modified by InsP6 treatment.

[7] = Toxic effects after injection, applicant's studies; format: in vivo
[8] = Ca^2+; read-out: Kd, calcium binding; cited from earlier work
[9] = mice and rats, high-dose (^18 600 μmol/kg), rate 60 μmol/kg/min or higher; cited from earlier work
[10] = system: hemoglobin; conditions: in vitro; cited from earlier work
[11] = system: neutrophils; conditions: cited from earlier work

T1 sequence (P16581 with tags, fused parts or gaps limits assumed): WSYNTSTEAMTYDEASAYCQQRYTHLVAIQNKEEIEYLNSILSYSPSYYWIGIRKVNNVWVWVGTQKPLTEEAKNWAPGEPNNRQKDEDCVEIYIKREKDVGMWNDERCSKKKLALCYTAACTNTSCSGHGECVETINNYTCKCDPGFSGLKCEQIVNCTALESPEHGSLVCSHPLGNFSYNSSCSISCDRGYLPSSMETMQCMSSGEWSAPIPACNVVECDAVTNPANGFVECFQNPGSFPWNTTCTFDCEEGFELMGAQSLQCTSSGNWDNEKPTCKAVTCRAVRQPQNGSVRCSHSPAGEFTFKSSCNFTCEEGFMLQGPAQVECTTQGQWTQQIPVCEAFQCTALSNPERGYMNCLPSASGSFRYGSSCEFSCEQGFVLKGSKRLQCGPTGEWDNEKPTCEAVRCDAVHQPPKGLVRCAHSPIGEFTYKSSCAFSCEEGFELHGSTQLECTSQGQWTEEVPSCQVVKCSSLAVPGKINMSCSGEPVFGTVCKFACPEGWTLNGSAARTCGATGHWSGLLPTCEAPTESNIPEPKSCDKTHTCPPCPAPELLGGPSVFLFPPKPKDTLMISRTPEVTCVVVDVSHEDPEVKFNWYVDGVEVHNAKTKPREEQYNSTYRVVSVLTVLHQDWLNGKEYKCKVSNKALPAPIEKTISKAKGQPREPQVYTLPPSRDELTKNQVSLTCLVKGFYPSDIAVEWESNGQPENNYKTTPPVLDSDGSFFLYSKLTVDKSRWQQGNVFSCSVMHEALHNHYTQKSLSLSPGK

O=P(O)(O)O[C@H]1[C@H](OP(=O)(O)O)[C@@H](OP(=O)(O)O)[C@H](OP(=O)(O)O)[C@@H](OP(=O)(O)O)[C@H]1OP(=O)(O)O [InsP6, myo-inositol hexakisphosphate]
LS 180 adhesion to E-selectin-Ig [1]: but not with E-selectin-lg
inhibition of LS 180 cell adhesion to L-COS [2]: 81±13%
inhibition of LS 180 cell adhesion to P-COS [3]: 95±5%
PMN adhesion to E-COS [4]: not to E-COS
PMN adhesion to TNF-activated endothelial cells, non-static ([5]; non-static conditions (rotation-induced shear stress, 64 r.p.m.)): blocked the adhesion of PMN
PMN adhesion to TNF-activated endothelial cells, static ([5]; static conditions): little or no effect
number of peripheral blood PMN [6]: not modified
toxic effects at decreased infusion rate and lower doses ([7]; 40 μmol/kg, decreased rate of infusion): These effects were avoided
duration of transient toxic effects ([7]; rapid i.v. (5-10 sec), >50 μmol/kg): 1 to 3 min
toxic effects upon rapid i.v. injection ([7]; rapid i.v. (5-10 sec), concentrated solutions >50 μmol/kg): some transient (duration 1-3 min) toxic effects (unsteady gate, spasms)
harmful effect on repeated protocol ([7]; repeated multiple times in the same animal, 40 μmol/kg): without apparent harmful effect
toxic effects, subcutaneous ([7]; s.c., doses up to 200 μmol/kg): no toxic effects were observed
Kd [8]: ~5 µM
acute toxic effects, i.v. infusion [9]: acute toxic effects
allosteric regulation of mammalian hemoglobin [10]: effective allosteric regulator of mammalian hemoglobin in vitro
effect on neutrophil responses to activating stimuli [11]: enhance their responses to activating stimuli
